These results are taken from patent publication US6881741B2 (ViroChem Pharma Inc., priority 2001, dated 2005).

This experiment deals with recombinant HCV NS5B (HCV RNA-dependent RNA polymerase) (Hepatitis C virus genotype 1b, UniProt P26663). As to the kind of experiment: biochemical. The following applies: HCV polymerase activity, list of compounds of Example 27; read-out: IC50 (polymerase activity).
Sequence of recombinant HCV NS5B (HCV RNA-dependent RNA polymerase) (P26663 2420-3010 limits assumed): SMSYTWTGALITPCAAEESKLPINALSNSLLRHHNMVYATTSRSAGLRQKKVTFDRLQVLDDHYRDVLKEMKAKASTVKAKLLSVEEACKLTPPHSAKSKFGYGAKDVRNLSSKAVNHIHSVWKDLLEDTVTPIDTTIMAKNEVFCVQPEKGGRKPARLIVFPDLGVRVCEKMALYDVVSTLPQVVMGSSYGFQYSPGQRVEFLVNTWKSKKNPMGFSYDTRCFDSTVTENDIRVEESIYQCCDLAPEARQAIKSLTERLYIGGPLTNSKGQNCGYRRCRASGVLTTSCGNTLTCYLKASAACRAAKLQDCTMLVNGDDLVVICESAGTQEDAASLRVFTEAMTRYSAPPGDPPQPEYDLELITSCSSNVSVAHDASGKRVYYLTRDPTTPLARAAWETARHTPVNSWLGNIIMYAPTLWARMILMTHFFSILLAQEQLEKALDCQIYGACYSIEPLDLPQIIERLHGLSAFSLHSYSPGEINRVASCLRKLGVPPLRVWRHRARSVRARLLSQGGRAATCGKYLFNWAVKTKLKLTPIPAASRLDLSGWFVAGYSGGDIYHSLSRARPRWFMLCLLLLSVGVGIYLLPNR

As for `O=C(O)c1sc(-c2ccccc2)cc1N(Cc1ccc(Cl)cc1)C(=O)C1CC1` [Compound 459, 3-[(4-CHLORO-BENZYL)- CYCLOPROPANECARBONYL-AMINO]-5- PHENYL-THIOPHENE-2-CARBOXYLIC ACID], the half-inhibitory concentration (IC50) lay within 5 to 20 µM.

As for `CC(=O)c1ccc(-c2cc(N(C(=O)C3CCC(C)CC3)C(C)C)c(C(=O)O)s2)cc1` (stereo not drawn) [Compound 460, 5-(4-ACETYL-PHENYL)-3-[ISOPROPYL-(4- METHYL-CYCLOHEXANECARBONYL)- AMINO]-THIOPHENE-2-CARBOXYLIC ACID], the IC50 is less than 5 µM.

On to `O=C(O)c1sc(-c2ccccc2)cc1N(Cc1ccc(Cl)cc1)C(=O)C1CCC1` [Compound 461, 3-[(4-CHLORO-BENZYL)- CYCLOBUTANECARBONYL-AMINO]-5- PHENYL-THIOPHENE-2-CARBOXYLIC ACID], for which the half-maximal inhibitory concentration (IC50) was 5 to 20 µM.

Take `CCCC(=O)N(Cc1ccc(Cl)cc1)c1cc(-c2ccccc2)sc1C(=O)O` [Compound 462, 3-[BUTYRYL-(4-CHLORO-BENZYL)- AMINO]-5-PHENYL-THIOPHENE-2- CARBOXYLIC ACID]: the half-inhibitory concentration (IC50) lay within 5 to 20 µM.

In the case of `O=C(O)c1sc(-c2ccccc2)cc1N(Cc1ccc(Cl)cc1)C(=O)CC1CCCC1` [Compound 463, 3-[(4-CHLORO-BENZYL)-(2- CYCLOPENTYL-ACETYL)-AMINO]-5- PHENYL-THIOPHENE-2-CARBOXYLIC ACID], the concentration for half-maximal inhibition (IC50) was less than 5 µM.

Take `CC(=O)N(Cc1ccc(C(F)(F)F)cc1)c1cc(-c2ccccc2)sc1C(=O)O` [Compound 464, 3-[ACETYL-(4-TRIFLUOROMETHYL- BENZYL)-AMINO]-5-PHENYL-THIOPHENE- 2-CARBOXYLIC ACID]: the IC50 lay within 5 to 20 µM.

Turning to `Cc1cccc(CN(C(=O)C(C)C)c2cc(-c3ccccc3)sc2C(=O)O)c1` [Compound 465, 3-[ISOBUTYRYL-(3-METHYL-BENZYL)- AMINO]-5-PHENYL-THIOPHENE-2- CARBOXYLIC ACID], the IC50 lay within 5 to 20 µM.

For the compound `Cc1cccc(CN(C(=O)C2CC2)c2cc(-c3ccccc3)sc2C(=O)O)c1` [Compound 466, 3-[CYCLOPROPANECARBONYL-(3- METHYL-BENZYL)-AMINO]-5-PHENYL- THIOPHENE-2-CARBOXYLIC ACID], the IC50 lay within 5 to 20 µM.

For the compound `CCC(=O)N(Cc1ccc(C)cc1)c1cc(-c2ccccc2)sc1C(=O)O` [Compound 467, 3-[(4-METHYL-BENZYL)-PROPIONYL- AMINO]-5-PHENYL-THIOPHENE-2- CARBOXYLIC ACID], the IC50 fell in the range of 5 to 20 µM.

Consider `Cc1ccc(CN(C(=O)C(C)C)c2cc(-c3ccccc3)sc2C(=O)O)cc1` [Compound 468, 3-[ISOBUTYRYL-(4-METHYL-BENZYL)- AMINO]-5-PHENYL-THIOPHENE-2- CARBOXYLIC ACID], for which the IC50 was in the range of 5 to 20 µM.

Consider `Cc1ccc(CN(C(=O)C2CC2)c2cc(-c3ccccc3)sc2C(=O)O)cc1` [Compound 469, 3-[CYCLOPROPANECARBONYL-(4- METHYL-BENZYL)-AMINO]-5-PHENYL- THIOPHENE-2-CARBOXYLIC ACID], for which the IC50 lay in the range of 5 to 20 µM.

Regarding `CCCC(=O)N(Cc1ccc(C)cc1)c1cc(-c2ccccc2)sc1C(=O)O` [Compound 470, 3-[BUTYRYL-(4-METHYL-BENZYL)- AMINO]-5-PHENYL-THIOPHENE-2- CARBOXYLIC ACID], the IC50 fell in the range of 5 to 20 µM.

For the compound `CCC(=O)N(Cc1cccc(OC)c1)c1cc(-c2ccccc2)sc1C(=O)O` [Compound 471, 3-[(3-METHOXY-BENZYL)-PROPIONYL- AMINO]-5-PHENYL-THIOPHENE-2- CARBOXYLIC ACID], the 50% inhibitory concentration (IC50) is greater than 20 µM.

Take `COc1cccc(CN(C(=O)CC(C)C)c2cc(-c3ccccc3)sc2C(=O)O)c1` [Compound 472, 3-[(3-METHOXY-BENZYL)-(3-METHYL- BUTYRYL)-AMINO]-5-PHENYL- THIOPHENE-2-CARBOXYLIC ACID]: the IC50 is less than 5 µM.

As to `COc1cccc(CN(C(=O)C2CCC2)c2cc(-c3ccccc3)sc2C(=O)O)c1` [Compound 473, 3-[CYCLOBUTANECARBONYL-(3- METHOXY-BENZYL)-AMINO]-5-PHENYL- THIOPHENE-2-CARBOXYLIC ACID], the 50% inhibitory concentration (IC50) is 5 to 20 µM.

For `Cc1ccc(C(=O)N(c2cc(-c3ccccc3)sc2C(=O)O)C(C)C)c(C(N)=O)c1` [Compound 474, 3-[(2-CARBAMOYL-4-METHYL-BENZOYL)- ISOPROPYL-AMINO]-5-PHENYL- THIOPHENE-2-CARBOXYLIC ACID], the half-maximal inhibitory concentration (IC50) was 5 to 20 µM.

Regarding `CCCC(=O)N(Cc1cccc(OC)c1)c1cc(-c2ccccc2)sc1C(=O)O` [Compound 475, 3-[BUTYRYL-(3-METHOXY-BENZYL)- AMINO]-5-PHENYL-THIOPHENE-2- CARBOXYLIC ACID], the 50% inhibitory concentration (IC50) was 5 to 20 µM.

With `CC(=O)N(Cc1cccc(Cl)c1)c1cc(-c2ccccc2)sc1C(=O)O` [Compound 476, 3-[ACETYL-(3-CHLORO-BENZYL)-AMINO]- 5-PHENYL-THIOPHENE-2-CARBOXYLIC ACID], the 50% inhibitory concentration (IC50) was greater than 20 µM.

For the compound `CCC(=O)N(Cc1cccc(Cl)c1)c1cc(-c2ccccc2)sc1C(=O)O` [Compound 477, 3-[(3-CHLORO-BENZYL)-PROPIONYL- AMINO]-5-PHENYL-THIOPHENE-2- CARBOXYLIC ACID], the 50% inhibitory concentration (IC50) is 5 to 20 µM.

For `COCC(=O)N(Cc1cccc(Cl)c1)c1cc(-c2ccccc2)sc1C(=O)O` [Compound 478, 3-[(3-CHLORO-BENZYL)-(2-METHOXY- ACETYL)-AMINO]-5-PHENYL-THIOPHENE- 2-CARBOXYLIC ACID], the half-maximal inhibitory concentration (IC50) was greater than 20 µM.

`CC(C)CC(=O)N(Cc1cccc(Cl)c1)c1cc(-c2ccccc2)sc1C(=O)O` [Compound 479, 3-[(3-CHLORO-BENZYL)-(3-METHYL- BUTYRYL)-AMINO]-5-PHENYL- THIOPHENE-2-CARBOXYLIC ACID]: the IC50 was less than 5 µM.

Take `O=C(O)c1sc(-c2ccccc2)cc1N(Cc1cccc(Cl)c1)C(=O)C1CC1` [Compound 480, 3-[(3-CHLORO-BENZYL)- CYCLOPROPANECARBONYL-AMINO]-5- PHENYL-THIOPHENE-2-CARBOXYLIC ACID]: the IC50 was in the range of 5 to 20 µM.

On to `O=C(O)c1sc(-c2ccccc2)cc1N(Cc1cccc(Cl)c1)C(=O)C1CCC1` [Compound 481, 3-[(3-CHLORO-BENZYL)- CYCLOBUTANECARBONYL-AMINO]-5- PHENYL-THIOPHENE-2-CARBOXYLIC ACID], for which the concentration for half-maximal inhibition (IC50) was 5 to 20 µM.

Take `CCCC(=O)N(Cc1cccc(Cl)c1)c1cc(-c2ccccc2)sc1C(=O)O` [Compound 482, 3-[BUTYRYL-(3-CHLORO-BENZYL)- AMINO]-5-PHENYL-THIOPHENE-2- CARBOXYLIC ACID]: the IC50 was less than 5 µM.

On to `CC(=O)N(Cc1ccc(F)cc1F)c1cc(-c2ccccc2)sc1C(=O)O` [Compound 483, 3-[ACETYL-(2,4-DIFLUORO-BENZYL)- AMINO]-5-PHENYL-THIOPHENE-2- CARBOXYLIC ACID], for which the IC50 fell in the range of 5 to 20 µM.

With `COCC(=O)N(Cc1ccc(F)cc1F)c1cc(-c2ccccc2)sc1C(=O)O` [Compound 484, 3-[(2,4-DIFLUORO-BENZYL)-(2-METHOXY- ACETYL)-AMINO]-5-PHENYL-THIOPHENE- 2-CARBOXYLIC ACID], the half-maximal inhibitory concentration (IC50) was 5 to 20 µM.

For the compound `CC(C)C(=O)N(Cc1ccc(F)cc1F)c1cc(-c2ccccc2)sc1C(=O)O` [Compound 485, 3-[(2,4-DIFLUORO-BENZYL)- ISOBUTYRYL-AMINO]-5-PHENYL- THIOPHENE-2-CARBOXYLIC ACID], the IC50 fell in the range of 5 to 20 µM.

Consider `CC(C)CC(=O)N(Cc1ccc(F)cc1F)c1cc(-c2ccccc2)sc1C(=O)O` [Compound 486, 3-[(2,4-DIFLUORO-BENZYL)-(3-METHYL- BUTYRYL)-AMINO]-5-PHENYL- THIOPHENE-2-CARBOXYLIC ACID], for which the half-inhibitory concentration (IC50) is 5 to 20 µM.

For `O=C(O)c1sc(-c2ccccc2)cc1N(Cc1ccccc1)C(=O)CC1CCCC1` [Compound 487, 3-[BENZYL-(2-CYCLOPENTYL-ACETYL)- AMINO]-5-PHENYL-THIOPHENE-2- CARBOXYLIC ACID], the half-inhibitory concentration (IC50) was less than 5 µM.

As for `CC(C)N(C(=O)c1ccc(Cl)cc1Cl)c1cc(-c2ccc3[nH]ccc3c2)sc1C(=O)O` [Compound 488, 3-[(2,4-DICHLORO-BENZOYL)- ISOPROPYL-AMINO]-5-(1H-INDOL-5-YL)- THIOPHENE-2-CARBOXYLIC ACID], the IC50 is less than 5 µM.

Regarding `O=C(O)c1sc(-c2ccccc2)cc1N(Cc1ccccc1)C(=O)C1CCC1` [Compound 489, 3-(BENZYL-CYCLOBUTANECARBONYL- AMINO)-5-PHENYL-THIOPHENE-2- CARBOXYLIC ACID], the IC50 is less than 5 µM.

With `O=C(O)c1sc(-c2ccccc2)cc1N(Cc1ccc(F)cc1F)C(=O)C1CCCCC1` [Compound 490, 3-[CYCLOHEXANECARBONYL-(2,4- DIFLUORO-BENZYL)-AMINO]-5-PHENYL- THIOPHENE-2-CARBOXYLIC ACID], the 50% inhibitory concentration (IC50) was less than 5 µM.

As for `C=CCN(C(=O)Cc1ccc(OC)cc1)c1cc(-c2ccccc2)sc1C(=O)O` [Compound 491, 3-{ALLYL-[2-(4-METHOXY-PHENYL)- ACETYL]-AMINO}-5-PHENYL-THIOPHENE- 2-CARBOXYLIC ACID], the IC50 was greater than 20 µM.

With `CCCC(=O)N(CC)c1cc(-c2ccccc2)sc1C(=O)O` [Compound 493, 3-(BUTYRYL-ETHYL-AMINO)-5-PHENYL- THIOPHENE-2-CARBOXYLIC ACID], the IC50 lay in the range of 5 to 20 µM.

For the compound `CCN(C(=O)CCC(C)C)c1cc(-c2ccccc2)sc1C(=O)O` [Compound 494, 3-[ETHYL-(4-METHYL-PENTANOYL)- AMINO]-5-PHENYL-THIOPHENE-2- CARBOXYLIC ACID], the IC50 was less than 5 µM.

As to `O=C(O)c1sc(-c2ccccc2)cc1N(Cc1ccc(F)cc1F)C(=O)C1CCC1` [Compound 495, 3-[CYCLOBUTANECARBONYL-(2,4- DIFLUORO-BENZYL)-AMINO]-5-PHENYL- THIOPHENE-2-CARBOXYLIC ACID], the half-inhibitory concentration (IC50) was less than 5 µM.

In the case of `CCCC(=O)N(Cc1ccc(F)cc1F)c1cc(-c2ccccc2)sc1C(=O)O` [Compound 496, 3-[BUTYRYL-(2,4-DIFLUORO-BENZYL)- AMINO]-5-PHENYL-THIOPHENE-2- CARBOXYLIC ACID], the IC50 is less than 5 µM.

As for `CN(C(=O)C1CCCC1)c1cc(-c2ccccc2)sc1C(=O)O` [Compound 497, 3-(CYCLOPENTANECARBONYL-METHYL- AMINO)-5-PHENYL-THIOPHENE-2- CARBOXYLIC ACID], the half-maximal inhibitory concentration (IC50) was less than 5 µM.

Regarding `CN(C(=O)C1CCCCC1)c1cc(-c2ccccc2)sc1C(=O)O` [Compound 498, 3-(CYCLOHEXANECARBONYL-METHYL- AMINO)-5-PHENYL-THIOPHENE-2- CARBOXYLIC ACID], the concentration for half-maximal inhibition (IC50) was less than 5 µM.
